Patent US12077503B2, “Substituted cyclic amides and their use as herbicides” (FMC CORPORATION, priority 2015, dated 2024)

What was measured:
Format in all cases: in vivo
[1] = system: ivy-leaved morning glory (Ipomoea hederacea); experiment: Test G Post-Emergence Protocol
Procedure: (§1) Seeds of corn (Zea mays), giant foxtail (Setaria faberi), barnyardgrass (Echinochloa crus-galli), ivy-leaved morning glory (Ipomoea hederacea), redroot pigweed (Amaranthus retroflexus) and velvetleaf (Abutilon theophrasti) were sown in standard soil in pots. After cultivation for 8 days under controlled conditions in a glasshouse (at 24/16° C., day/night; 14 hours light; 65% humidity), the plants were sprayed with an aqueous spray solution derived from the formulation of the technical active ingredient in acetone/water (50:50) solution containing 0.5% Tween 20 (polyoxyethylene sorbitan monolaurate, CAS RN 9005-64-5) to give a final dose of 15.625, 62.5 or 250 g/ha of test compound.
(§2) The test plants were then grown on under controlled conditions in a glasshouse (at 24/16° C., day/night; 14 hours light; 65% humidity) and watered twice daily. After 13 days the test was evaluated (100=total damage to plant; 0=no damage to plant). A dash (-) means no test result.

[2] = system: velvetleaf (Abutilon theophrasti); experiment: Test G Post-Emergence Protocol
Procedure: as §1, §2

[3] = system: barnyardgrass (Echinochloa crus-galli); experiment: Test G Post-Emergence Protocol
Procedure: as §1, §2

corn (Zea mays) [4] = experiment: Test G Post-Emergence Protocol
Procedure: as §1, §2

[5] = system: redroot pigweed (Amaranthus retroflexus); experiment: Test G Post-Emergence Protocol
Procedure: as §1, §2

[6] = system: giant foxtail (Setaria faberi); experiment: Test G Post-Emergence Protocol
Procedure: as §1, §2

[7] = system: ivy-leaved morning glory (Ipomoea hederacea); experiment: Test G Pre-Emergence Protocol; settings: evaluated after 13 days; for Morningglory, Ivy-leaved damage rating: 62.5 g ai/ha, 100=total damage to plant, 0=no damage to plant
Procedure: as §1, with “one day” for “8 days”
as §2

[8] = system: velvetleaf (Abutilon theophrasti); experiment: Test G Pre-Emergence Protocol; settings: evaluated after 13 days; for Velvetleaf damage rating: 62.5 g ai/ha, 100=total damage to plant, 0=no damage to plant
Procedure: as §1, with “one day” for “8 days”
as §2

[9] = system: barnyardgrass (Echinochloa crus-galli); experiment: Test G Pre-Emergence Protocol; settings: evaluated after 13 days; for Barnyardgrass damage rating: 62.5 g ai/ha, 100=total damage to plant, 0=no damage to plant
Procedure: as §1, with “one day” for “8 days”
as §2

corn (Zea mays) [10] = experiment: Test G Pre-Emergence Protocol; settings: evaluated after 13 days; for Corn damage rating: 62.5 g ai/ha, 100=total damage to plant, 0=no damage to plant
Procedure: as §1, with “one day” for “8 days”
as §2

[11] = system: redroot pigweed (Amaranthus retroflexus); experiment: Test G Pre-Emergence Protocol; settings: evaluated after 13 days; for Pigweed, Redroot damage rating: 62.5 g ai/ha, 100=total damage to plant, 0=no damage to plant
Procedure: as §1, with “one day” for “8 days”
as §2

[12] = system: giant foxtail (Setaria faberi); experiment: Test G Pre-Emergence Protocol; settings: evaluated after 13 days; for Foxtail, Giant damage rating: 62.5 g ai/ha, 100=total damage to plant, 0=no damage to plant
Procedure: as §1, with “one day” for “8 days”
as §2

[13] = 15.625 g ai/ha, evaluated after 13 days (100=total damage to plant; 0=no damage to plant)
[14] = 62.5 g ai/ha, evaluated after 13 days, 100=total damage to plant, 0=no damage to plant
[15] = 250 g ai/ha, evaluated after 13 days, 100=total damage to plant, 0=no damage to plant

Structure (SMILES)	Morningglory, Ivy-leaved damage rating [1, 13]	Morningglory, Ivy-leaved damage rating [1, 14]	Morningglory, Ivy-leaved damage rating [1, 15]	Velvetleaf damage rating [2, 13]	Velvetleaf damage rating [2, 14]	Velvetleaf damage rating [2, 15]	Barnyardgrass damage rating [3, 13]	Barnyardgrass damage rating [3, 14]	Barnyardgrass damage rating [3, 15]	Corn damage rating (corn (Zea mays) [4]; [13])	Corn damage rating (corn (Zea mays) [4]; [14])	Corn damage rating (corn (Zea mays) [4]; [15])	Pigweed, Redroot damage rating [5, 13]	Pigweed, Redroot damage rating [5, 14]	Pigweed, Redroot damage rating [5, 15]	Foxtail, Giant damage rating [6, 13]	Foxtail, Giant damage rating [6, 14]	Foxtail, Giant damage rating [6, 15]	Morningglory, Ivy-leaved damage rating (100=total damage to plant; 0=no damage to plant) ([7]; 15.625 g ai/ha)	Morningglory, Ivy-leaved damage rating [7]	also measured
CN1C[C@@H](c2ccc(C(F)(F)F)cc2)[C@H](C(=O)Nc2cccnc2F)C1=O [Compound 1768]	0	0	0	0	0	0	0	0	0	0	0	0	0	0	0	0	0	0	0	0	Morningglory, Ivy-leaved damage rating (100=total damage to plant; 0=no damage to plant) ([7]; 250 g ai/ha): 0; Velvetleaf damage rating (100=total damage to plant; 0=no damage to plant) ([8]; 15.625 g ai/ha): 0; Velvetleaf damage rating [8]: 0; Velvetleaf damage rating (100=total damage to plant; 0=no damage to plant) ([8]; 250 g ai/ha): 0; Barnyardgrass damage rating (100=total damage to plant; 0=no damage to plant) ([9]; 15.625 g ai/ha): 0; Barnyardgrass damage rating [9]: 0; Barnyardgrass damage rating (100=total damage to plant; 0=no damage to plant) ([9]; 250 g ai/ha): 0; Corn damage rating (100=total damage to plant; 0=no damage to plant) (corn (Zea mays) [10]; 15.625 g ai/ha): 0; Corn damage rating (corn (Zea mays) [10]): 0; Corn damage rating (100=total damage to plant; 0=no damage to plant) (corn (Zea mays) [10]; 250 g ai/ha): 0; Pigweed, Redroot damage rating (100=total damage to plant; 0=no damage to plant) ([11]; 15.625 g ai/ha): 0; Pigweed, Redroot damage rating [11]: 0; Pigweed, Redroot damage rating (100=total damage to plant; 0=no damage to plant) ([11]; 250 g ai/ha): 0; Foxtail, Giant damage rating (100=total damage to plant; 0=no damage to plant) ([12]; 15.625 g ai/ha): 0; Foxtail, Giant damage rating [12]: 0; Foxtail, Giant damage rating (100=total damage to plant; 0=no damage to plant) ([12]; 250 g ai/ha): 0
CN1C[C@H](c2ccc(C(F)(F)F)cc2)[C@@H](C(=O)Nc2c[n+]([O-])ccc2C(F)(F)F)C1=O (racemic) [Compound 1732]	0	0	0	0	10	0	0	0	20	0	0	0	0	10	20	0	10	50	0	0	Morningglory, Ivy-leaved damage rating (100=total damage to plant; 0=no damage to plant) ([7]; 250 g ai/ha): 0; Velvetleaf damage rating (100=total damage to plant; 0=no damage to plant) ([8]; 15.625 g ai/ha): 0; Velvetleaf damage rating [8]: 0; Velvetleaf damage rating (100=total damage to plant; 0=no damage to plant) ([8]; 250 g ai/ha): 10; Barnyardgrass damage rating (100=total damage to plant; 0=no damage to plant) ([9]; 15.625 g ai/ha): 0; Barnyardgrass damage rating [9]: 0; Barnyardgrass damage rating (100=total damage to plant; 0=no damage to plant) ([9]; 250 g ai/ha): 0; Corn damage rating (100=total damage to plant; 0=no damage to plant) (corn (Zea mays) [10]; 15.625 g ai/ha): 0; Corn damage rating (corn (Zea mays) [10]): 0; Corn damage rating (100=total damage to plant; 0=no damage to plant) (corn (Zea mays) [10]; 250 g ai/ha): 0; Pigweed, Redroot damage rating (100=total damage to plant; 0=no damage to plant) ([11]; 15.625 g ai/ha): 0; Pigweed, Redroot damage rating [11]: 0; Pigweed, Redroot damage rating (100=total damage to plant; 0=no damage to plant) ([11]; 250 g ai/ha): 10; Foxtail, Giant damage rating (100=total damage to plant; 0=no damage to plant) ([12]; 15.625 g ai/ha): 0; Foxtail, Giant damage rating [12]: 20; Foxtail, Giant damage rating (100=total damage to plant; 0=no damage to plant) ([12]; 250 g ai/ha): 50
